One assay concerns the target D(2) dopamine receptor (Rattus norvegicus, UniProt P61169). Briefly: Binding affinity towards dopamine receptor D2 using [3H]-raclopride radioligand.
Assay [1] has as its target T1, 5-hydroxytryptamine receptor 1A (Rattus norvegicus, UniProt P19327).
T1 sequence (P19327 whole entry): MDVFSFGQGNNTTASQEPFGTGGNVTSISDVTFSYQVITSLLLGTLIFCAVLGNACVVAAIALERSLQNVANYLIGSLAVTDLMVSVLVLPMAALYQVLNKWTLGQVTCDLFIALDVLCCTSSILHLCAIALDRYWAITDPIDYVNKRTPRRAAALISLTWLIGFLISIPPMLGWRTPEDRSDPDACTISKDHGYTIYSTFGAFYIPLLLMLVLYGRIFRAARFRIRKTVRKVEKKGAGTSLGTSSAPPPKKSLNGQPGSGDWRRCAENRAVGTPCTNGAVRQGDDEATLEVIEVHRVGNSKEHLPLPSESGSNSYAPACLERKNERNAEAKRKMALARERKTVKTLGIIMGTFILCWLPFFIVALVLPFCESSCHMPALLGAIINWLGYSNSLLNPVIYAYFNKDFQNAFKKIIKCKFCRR
Briefly: Binding affinity towards rat 5-hydroxytryptamine 1A receptor using [3H]8-OH-DPAT radioligand.

Here are results for 37 compounds from BindingDB's records for doi:10.1021/jm960416g (Universidad Complutense, 1996).

A word on the Ki: it is the dissociation constant of the complex between target and ligand, obtained from inhibition or displacement. Low values mean a stronger hold on the target, high ones a looser hold on the target.

D(2) dopamine receptor, sequence (P61169 whole entry): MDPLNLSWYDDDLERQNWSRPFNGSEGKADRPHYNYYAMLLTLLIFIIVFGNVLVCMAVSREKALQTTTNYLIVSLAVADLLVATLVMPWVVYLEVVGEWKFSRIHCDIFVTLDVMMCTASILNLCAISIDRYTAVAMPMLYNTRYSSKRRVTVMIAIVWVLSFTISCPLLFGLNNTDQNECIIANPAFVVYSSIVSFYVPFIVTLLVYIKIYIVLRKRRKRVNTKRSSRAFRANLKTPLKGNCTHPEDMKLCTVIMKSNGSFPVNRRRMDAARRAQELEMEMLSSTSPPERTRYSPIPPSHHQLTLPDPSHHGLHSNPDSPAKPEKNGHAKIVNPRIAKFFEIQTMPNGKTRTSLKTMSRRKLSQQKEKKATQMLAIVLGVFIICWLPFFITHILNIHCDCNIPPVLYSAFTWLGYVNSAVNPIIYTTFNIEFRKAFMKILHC

Compound `COc1ccccc1N1CCN(CCCn2c(O)c3n(c2=O)CCC3)CC1` [2-{3-[4-(2-Methoxy-phenyl)-piperazin-1-yl]-propyl}-tetrahydro-pyrrolo[1,2-c]imidazole-1,3-dione] displayed a Ki on D(2) dopamine receptor above 1 µM.

With `O=c1n(CCN2CCN(c3ccc([N+](=O)[O-])cc3)CC2)c(O)c2n1CCC2` [2-{2-[4-(4-Nitro-phenyl)-piperazin-1-yl]-ethyl}-tetrahydro-pyrrolo[1,2-c]imidazole-1,3-dione], the Ki (at D(2) dopamine receptor; in assay [1]) was above 10 µM in each case.

Take `O=c1n(CN2CCN(c3ccc(F)cc3)CC2)c(O)c2n1CCCC2` [2-[4-(4-Fluoro-phenyl)-piperazin-1-ylmethyl]-tetrahydro-imidazo[1,5-a]pyridine-1,3-dione]: the Ki on D(2) dopamine receptor is above 10 µM.

As to `O=c1n(CCCN2CCN(c3cccc(C(F)(F)F)c3)CC2)c(O)c2n1CCC2` [2-{3-[4-(3-Trifluoromethyl-phenyl)-piperazin-1-yl]-propyl}-tetrahydro-pyrrolo[1,2-c]imidazole-1,3-dione], the Ki at D(2) dopamine receptor was above 1 µM.

Turning to `COc1ccccc1N1CCN(CCCn2c(O)c3n(c2=O)CCCC3)CC1` [2-{3-[4-(2-Methoxy-phenyl)-piperazin-1-yl]-propyl}-tetrahydro-imidazo[1,5-a]pyridine-1,3-dione], the Ki on D(2) dopamine receptor was above 1 µM.

Take `COc1ccccc1N1CCN(CCCCn2c(O)c3n(c2=O)CCCC3)CC1` [2-{4-[4-(2-Methoxy-phenyl)-piperazin-1-yl]-butyl}-tetrahydro-imidazo[1,5-a]pyridine-1,3-dione]: at D(2) dopamine receptor, the Ki was above 1 µM.

Regarding `O=c1n(CN2CCN(c3ccc([N+](=O)[O-])cc3)CC2)c(O)c2n1CCC2` [2-[4-(4-Nitro-phenyl)-piperazin-1-ylmethyl]-tetrahydro-pyrrolo[1,2-c]imidazole-1,3-dione], the Ki at D(2) dopamine receptor is above 10 µM; in assay [1], above 1 µM.

In turn, `O=c1n(CN2CCN(c3ccc(F)cc3)CC2)c(O)c2n1CCC2` [2-[4-(4-Fluoro-phenyl)-piperazin-1-ylmethyl]-tetrahydro-pyrrolo[1,2-c]imidazole-1,3-dione] displayed a Ki on D(2) dopamine receptor above 10 µM.

As for `O=c1n(CCCN2CCN(c3ccc([N+](=O)[O-])cc3)CC2)c(O)c2n1CCC2` [2-{3-[4-(4-Nitro-phenyl)-piperazin-1-yl]-propyl}-tetrahydro-pyrrolo[1,2-c]imidazole-1,3-dione], the Ki (at D(2) dopamine receptor; in assay [1]) was above 10 µM in each case.

On to `O=c1n(CCCN2CCN(c3cccc(Cl)c3)CC2)c(O)c2n1CCC2` [2-{3-[4-(3-Chloro-phenyl)-piperazin-1-yl]-propyl}-tetrahydro-pyrrolo[1,2-c]imidazole-1,3-dione], for which, on D(2) dopamine receptor, the Ki is above 1 µM.

With `O=c1n(CCN2CCN(c3ccccc3)CC2)c(O)c2n1CCC2` [2-[2-(4-Phenyl-piperazin-1-yl)-ethyl]-tetrahydro-pyrrolo[1,2-c]imidazole-1,3-dione], the Ki (at D(2) dopamine receptor; in assay [1]) was above 1 µM each time.

On D(2) dopamine receptor, `O=c1n(CCCCN2CCN(c3ccc(F)cc3)CC2)c(O)c2n1CCC2` [2-{4-[4-(4-Fluoro-phenyl)-piperazin-1-yl]-butyl}-tetrahydro-pyrrolo[1,2-c]imidazole-1,3-dione] had a Ki above 1 µM.

Regarding `O=c1n(CCCCN2CCN(c3cccc(C(F)(F)F)c3)CC2)c(O)c2n1CCC2` [2-{4-[4-(3-Trifluoromethyl-phenyl)-piperazin-1-yl]-butyl}-tetrahydro-pyrrolo[1,2-c]imidazole-1,3-dione], the Ki at D(2) dopamine receptor is above 1 µM.

`O=c1n(CCN2CCN(c3cccc(C(F)(F)F)c3)CC2)c(O)c2n1CCC2` [2-{2-[4-(3-Trifluoromethyl-phenyl)-piperazin-1-yl]-ethyl}-tetrahydro-pyrrolo[1,2-c]imidazole-1,3-dione]: the Ki at D(2) dopamine receptor is above 1 µM.

Consider `O=c1n(CN2CCN(c3ccccc3)CC2)c(O)c2n1CCC2` [2-(4-Phenyl-piperazin-1-ylmethyl)-tetrahydro-pyrrolo[1,2-c]imidazole-1,3-dione], for which the Ki at D(2) dopamine receptor is above 10 µM.

In the case of `O=c1n(CCN2CCN(c3cccc(Cl)c3)CC2)c(O)c2n1CCCC2` [2-{2-[4-(3-Chloro-phenyl)-piperazin-1-yl]-ethyl}-tetrahydro-imidazo[1,5-a]pyridine-1,3-dione], the Ki at D(2) dopamine receptor is above 1 µM.

As for `O=c1n(CCN2CCN(c3cccc(Cl)c3)CC2)c(O)c2n1CCC2` [2-{2-[4-(3-Chloro-phenyl)-piperazin-1-yl]-ethyl}-tetrahydro-pyrrolo[1,2-c]imidazole-1,3-dione], the Ki on D(2) dopamine receptor was above 1 µM.

Consider `O=c1n(CCCN2CCN(c3ccc(F)cc3)CC2)c(O)c2n1CCC2` [2-{3-[4-(4-Fluoro-phenyl)-piperazin-1-yl]-propyl}-tetrahydro-pyrrolo[1,2-c]imidazole-1,3-dione], for which the Ki (at D(2) dopamine receptor; in assay [1]) was above 1 µM each time.

The compound `O=c1n(CN2CCN(c3cccc(C(F)(F)F)c3)CC2)c(O)c2n1CCCC2` [2-[4-(3-Trifluoromethyl-phenyl)-piperazin-1-ylmethyl]-tetrahydro-imidazo[1,5-a]pyridine-1,3-dione] displayed a Ki at D(2) dopamine receptor above 1 µM.

As to `O=c1n(CN2CCN(c3cccc(Cl)c3)CC2)c(O)c2n1CCCC2` [2-[4-(3-Chloro-phenyl)-piperazin-1-ylmethyl]-tetrahydro-imidazo[1,5-a]pyridine-1,3-dione], the Ki at D(2) dopamine receptor was above 10 µM.

Regarding `O=c1n(CCCN2CCN(c3ccccc3)CC2)c(O)c2n1CCCC2` [2-[3-(4-Phenyl-piperazin-1-yl)-propyl]-tetrahydro-imidazo[1,5-a]pyridine-1,3-dione], the Ki on D(2) dopamine receptor was above 1 µM.

`O=c1n(CCCN2CCN(c3cccc(C(F)(F)F)c3)CC2)c(O)c2n1CCCC2` [2-{3-[4-(3-Trifluoromethyl-phenyl)-piperazin-1-yl]-propyl}-tetrahydro-imidazo[1,5-a]pyridine-1,3-dione] had a Ki on D(2) dopamine receptor above 1 µM.

In the case of `O=c1n(CCN2CCN(c3ccc([N+](=O)[O-])cc3)CC2)c(O)c2n1CCCC2` [2-{2-[4-(4-Nitro-phenyl)-piperazin-1-yl]-ethyl}-tetrahydro-imidazo[1,5-a]pyridine-1,3-dione], the Ki (at D(2) dopamine receptor; in assay [1]) was above 10 µM each time.

`O=c1n(CCCN2CCN(c3ccccc3)CC2)c(O)c2n1CCC2` [2-[3-(4-Phenyl-piperazin-1-yl)-propyl]-tetrahydro-pyrrolo[1,2-c]imidazole-1,3-dione] displayed a Ki on D(2) dopamine receptor above 1 µM.

Regarding `O=c1n(CCCN2CCN(c3cccc(Cl)c3)CC2)c(O)c2n1CCCC2` [2-{3-[4-(3-Chloro-phenyl)-piperazin-1-yl]-propyl}-tetrahydro-imidazo[1,5-a]pyridine-1,3-dione], on D(2) dopamine receptor, the Ki is above 1 µM.

Take `COc1ccccc1N1CCN(Cn2c(O)c3n(c2=O)CCC3)CC1` [2-[4-(2-Methoxy-phenyl)-piperazin-1-ylmethyl]-tetrahydro-pyrrolo[1,2-c]imidazole-1,3-dione]: the Ki on D(2) dopamine receptor was above 1 µM.

At D(2) dopamine receptor, `COc1ccccc1N1CCN(Cn2c(O)c3n(c2=O)CCCC3)CC1` [2-[4-(2-Methoxy-phenyl)-piperazin-1-ylmethyl]-tetrahydro-imidazo[1,5-a]pyridine-1,3-dione] gave a Ki above 10 µM.

Regarding `O=c1n(CCN2CCN(c3ccc(F)cc3)CC2)c(O)c2n1CCC2` [2-{2-[4-(4-Fluoro-phenyl)-piperazin-1-yl]-ethyl}-tetrahydro-pyrrolo[1,2-c]imidazole-1,3-dione], the inhibitory constant (Ki) (on D(2) dopamine receptor; in assay [1]) was above 10 µM each time.

As for `O=c1n(CCN2CCN(c3ccccc3)CC2)c(O)c2n1CCCC2` [2-[2-(4-Phenyl-piperazin-1-yl)-ethyl]-tetrahydro-imidazo[1,5-a]pyridine-1,3-dione], the Ki (at D(2) dopamine receptor; in assay [1]) was above 1 µM in each case.

Regarding `O=c1n(CCCN2CCN(c3ccc([N+](=O)[O-])cc3)CC2)c(O)c2n1CCCC2` [2-{3-[4-(4-Nitro-phenyl)-piperazin-1-yl]-propyl}-tetrahydro-imidazo[1,5-a]pyridine-1,3-dione], the Ki (on D(2) dopamine receptor; in assay [1]) was above 10 µM each time.

In the case of `O=c1n(CN2CCN(c3cccc(C(F)(F)F)c3)CC2)c(O)c2n1CCC2` [2-[4-(3-Trifluoromethyl-phenyl)-piperazin-1-ylmethyl]-tetrahydro-pyrrolo[1,2-c]imidazole-1,3-dione], the Ki at D(2) dopamine receptor is above 1 µM.

Regarding `O=c1n(CN2CCN(c3ccc([N+](=O)[O-])cc3)CC2)c(O)c2n1CCCC2` [2-[4-(4-Nitro-phenyl)-piperazin-1-ylmethyl]-tetrahydro-imidazo[1,5-a]pyridine-1,3-dione], the Ki is above 10 µM at D(2) dopamine receptor and above 1 µM in assay [1].

With `O=c1n(CCCCN2CCN(c3ccccc3)CC2)c(O)c2n1CCCC2` [2-[4-(4-Phenyl-piperazin-1-yl)-butyl]-tetrahydro-imidazo[1,5-a]pyridine-1,3-dione], at D(2) dopamine receptor, the Ki was above 1 µM.

For `O=c1n(CCCN2CCN(c3ccc(F)cc3)CC2)c(O)c2n1CCCC2`, on D(2) dopamine receptor, the Ki was above 1 µM.

In the case of `O=c1n(CCN2CCN(c3cccc(C(F)(F)F)c3)CC2)c(O)c2n1CCCC2` [2-{2-[4-(3-Trifluoromethyl-phenyl)-piperazin-1-yl]-ethyl}-tetrahydro-imidazo[1,5-a]pyridine-1,3-dione], the Ki at D(2) dopamine receptor is above 1 µM.

`O=c1n(CN2CCN(c3cccc(Cl)c3)CC2)c(O)c2n1CCC2` [2-[4-(3-Chloro-phenyl)-piperazin-1-ylmethyl]-tetrahydro-pyrrolo[1,2-c]imidazole-1,3-dione] showed a Ki at D(2) dopamine receptor above 10 µM.

The compound `O=c1n(CN2CCN(c3ccccc3)CC2)c(O)c2n1CCCC2` [2-(4-Phenyl-piperazin-1-ylmethyl)-tetrahydro-imidazo[1,5-a]pyridine-1,3-dione] came in with a Ki at D(2) dopamine receptor above 10 µM.
